Test results as given in patent US12605539B2, “Methods and systems for delivering drugs through skin of a body” (PASSPORT TECHNOLOGIES, INC., priority 2019, dated 2026).

How the values were obtained:
[1] = Blood concentration of polysaccharide (Fondaparinux) after microporation patch (FIG. 13); format: in vivo, hairless Guinea pigs; conditions: 4 ms pulses
Procedure: The patch 102 used for FIG. 13 graphs 1300 and 1320 has a nonwoven matrix, a thickness of 180 μm, weight of 18 g/m^2, WHC of 17 mg/cm^2, a drug of 0.01 mg/cm^2, and a total solids level of 6.1 mg/cm^2. An energy pulse of 6.3 mJ and 5.2 mJ per filament to create between about 200 and 400 pathways via microporation having a 1 cm^2 treated area of between about 5 and 10% per square centimeter of skin, respectively.
(§1) The graph 1300 includes the concentration of the polysacharride (for example, Fondaparinux) in micrograms/milliliter (μg/mL) along the y-axis and time in hours (hr) along the x-axis. […] The line 1302 represents the patch 102 having a formulation of 2.5 mg of the polysacharride applied with the patch 102 and microporation parameters described above. The line 1304 represents the patch 102 having a formulation of 5.0 mg of the polysacharride applied with the patch 102 and microporation parameters described above. The line 1306 represents the patch 102 having a formulation of 7.5 mg of the polysacharride applied with the patch 102 and microporation parameters described above. Each of the three lines 1302, 1304, and 1306 follow the same general trend of increasing to a peak concentration value and then gradually decreasing in concentration. The line 1306 has the highest concentration values, followed by line 1304 and then line 1302.
as §1, with “1320” for “1300”, “1322” for “1302”, “1324” for “1304”, “1326” for “1306”, “1322, 1324,” for “1302, 1304,”, “1322.” for “1302.”

[2] = Blood concentration of Somatropin after microporation patch (FIG. 18); format: in vivo, hairless Guinea pigs; conditions: patch 0.5 mg, 1.0 cm^2
Source text: The microporation occurs according to the parameters in Table 17. […] 200 Wide filaments are double the width of standard one (2×50 micrometers) so the energy pulse of 5.2 mJ and 9.3 mJ per filament, thus providing the same current density/flux, and similar power used.
The graph 1800 includes the concentration of the peptide in ng/mL along the y-axis and time in hours (hr) along the x-axis. […] The line 1802 represents the group 1 parameters from Tables 17 and 18. The line 1804 represents the group 2 parameters from Tables 17 and 18. The line 1806 represents the group 3 parameters from Tables 17 and 18. The line 1808 represents the group 4 parameters from Tables 17 and 18. Each of the four lines 1802, 1804, 1806, and 1808 follow the same general trend of increasing to a peak concentration value and then gradually decreasing in concentration. The line 1808 generally has the highest concentration values, followed by line 1802, then line 1804, and finally line 1806. It is noted that the line 1804 exceeds line 1806 from between about 2 hours to about 3 hours.

[3] = group 1: 400 pores, 5.7 mJ/filament (Table 17)
[4] = group 2: 400 pores, 9.3 mJ/filament
[5] = group 3: 200 wide pores, 5.2 mJ/filament
[6] = group 4: 200 wide pores, 9.3 mJ/filament

For `CO[C@H]1O[C@H](COS(=O)(=O)O)[C@@H](O[C@@H]2O[C@@H](C(=O)O)[C@@H](O[C@H]3O[C@H](COS(=O)(=O)O)[C@@H](O[C@@H]4O[C@H](C(=O)O)[C@@H](O[C@H]5O[C@H](COS(=O)(=O)O)[C@@H](O)[C@H](O)[C@H]5NS(=O)(=O)O)[C@H](O)[C@H]4O)[C@H](OS(=O)(=O)O)[C@H]3NS(=O)(=O)O)[C@H](O)[C@H]2OS(=O)(=O)O)[C@H](O)[C@H]1NS(=O)(=O)O` [Fondaparinux], which “area under the curve (AUC)” value ([1]; patch 2.5 mg, 200 pathways) is on record?
Its value is 72800 ng·h/mL.

What about the bioavailability ([1]; patch 2.5 mg, 200 pathways) of the same compound?
Its bioavailability is 170.9%.

What about the maximum concentration ([1]; patch 2.5 mg, 200 pathways) of the same compound?
The maximum concentration was 5.1 µg/mL.

And the AUC ([1]; patch 2.5 mg, 400 pathways)?
The AUC was 97300 ng·h/mL.

What about the bioavailability ([1]; patch 2.5 mg, 400 pathways) of the same compound?
Its bioavailability is 228.5%.

What about the maximum concentration ([1]; patch 2.5 mg, 400 pathways) of the same compound?
The maximum concentration was 8.0 µg/mL.

What about the AUC ([1]; patch 5.0 mg, 200 pathways) of the same compound?
The AUC was 100900 ng·h/mL.

And the bioavailability ([1]; patch 5.0 mg, 200 pathways)?
Its bioavailability is 118.4%.

And the maximum concentration ([1]; patch 5.0 mg, 200 pathways)?
Its maximum concentration is 6.7 µg/mL.

And the AUC ([1]; patch 5.0 mg, 400 pathways)?
Its AUC is 125200 ng·h/mL.

And the bioavailability ([1]; patch 5.0 mg, 400 pathways)?
Its bioavailability is 146.9%.

And the maximum concentration ([1]; patch 5.0 mg, 400 pathways)?
Its maximum concentration is 10.5 µg/mL.

And the AUC ([1]; patch 7.5 mg, 200 pathways)?
The AUC was 152300 ng·h/mL.

And the bioavailability ([1]; patch 7.5 mg, 200 pathways)?
The bioavailability was 119.2%.

What about the maximum concentration ([1]; patch 7.5 mg, 200 pathways) of the same compound?
Its maximum concentration is 9.1 µg/mL.

And the AUC ([1]; patch 7.5 mg, 400 pathways)?
Its AUC is 145800 ng·h/mL.

And the bioavailability ([1]; patch 7.5 mg, 400 pathways)?
Its bioavailability is 114.1%.

What about the maximum concentration ([1]; patch 7.5 mg, 400 pathways) of the same compound?
The maximum concentration was 11.5 µg/mL.

Which AUC [2, 3] does the source give for Somatropin here?
Its AUC is 87.1 ng·h/mL.

And the Cmax [2, 3]?
The Cmax was 20.4 ng/mL.

And the Tmax [2, 3]?
Its Tmax is 1.3 h.

And the “bioavailability (BA)” value [2, 3]?
Its value is 35.8%.

And the AUC [2, 4]?
Its AUC is 90.1 ng·h/mL.

And the Cmax [2, 4]?
The Cmax was 16.1 ng/mL.

And the Tmax [2, 4]?
Its Tmax is 1.8 h.

And the “bioavailability (BA)” value [2, 4]?
Its value is 37.0%.

And the AUC [2, 5]?
The AUC was 78.1 ng·h/mL.

What about the Cmax [2, 5] of the same compound?
Its Cmax is 16.4 ng/mL.

And the Tmax [2, 5]?
The Tmax was 1.5 h.

What about the “bioavailability (BA)” value [2, 5] of the same compound?
Its value is 32.1%.

And the AUC [2, 6]?
Its AUC is 94.9 ng·h/mL.

And the Cmax [2, 6]?
The Cmax was 22.6 ng/mL.

What about the Tmax [2, 6] of the same compound?
Its Tmax is 1.5 h.

And the “bioavailability (BA)” value [2, 6]?
Its value is 39.0%.
